ChEMBL document CHEMBL5729111, “CD73 inhibitors and therapeutic uses thereof” (2022)

Molecular target: 5'-nucleotidase (Homo sapiens, UniProt P21589)
Assay: Enzyme Activity In Vitro Assay: I. Experimental Materials and Equipment1. Malachite green phosphate detection kit (R & D Systems, Cat #, DY996)2. Recombinant human 5′-nucleotidase (CD73) (R & D Systems, Cat #, 5795-EN)3. HEPES buffer (Gibco, Cat #, 15630-080)4. CMP (Sigma, Cat #, C1006)5. DMSO (Fisher Chemical, Cat #, D128-1)6. NaCl 5M (Boston Bioproducts, Cat #, BM-244)7.384-well plate (Fisher, Cat #, 5795-EN)8. TECAN plate reader (TECAN)II. Experimental ProcedureCompounds are first dissolved in DMSO to 10 mM as a stock solution. When determining the IC50 of the compound, prepare 3-fold serial dilutions with a highest concentration of 125 μM for a total of 12 concentration points and ensure each dilution containing equal amount of DMSO. In each well of 384-well plate, 0.34 nM of recombinant human 5′-nucleotidase (CD73) was pre-incubated at 37° C. for 2 hours with the compounds tested in assay buffer containing 20 mM HEPES buffer (pH 7.4), 137 mM NaCl, 0.001% Tween 20. The final reaction volume of the reaction in each well was 12 μL. The highest concentration of compound was 125 μM and the DMSO concentration was 1.25%. After pre-incubation, 3 μL of CMP dissolved in assay buffer was added to each reaction. The final CMP concentration was 45 μM. The reaction was incubated at 37° C. for 15 minutes. Then 3 μL of Malachite Green Reagent A was added to each reaction. […]

Sequence of 5'-nucleotidase (P21589 whole entry): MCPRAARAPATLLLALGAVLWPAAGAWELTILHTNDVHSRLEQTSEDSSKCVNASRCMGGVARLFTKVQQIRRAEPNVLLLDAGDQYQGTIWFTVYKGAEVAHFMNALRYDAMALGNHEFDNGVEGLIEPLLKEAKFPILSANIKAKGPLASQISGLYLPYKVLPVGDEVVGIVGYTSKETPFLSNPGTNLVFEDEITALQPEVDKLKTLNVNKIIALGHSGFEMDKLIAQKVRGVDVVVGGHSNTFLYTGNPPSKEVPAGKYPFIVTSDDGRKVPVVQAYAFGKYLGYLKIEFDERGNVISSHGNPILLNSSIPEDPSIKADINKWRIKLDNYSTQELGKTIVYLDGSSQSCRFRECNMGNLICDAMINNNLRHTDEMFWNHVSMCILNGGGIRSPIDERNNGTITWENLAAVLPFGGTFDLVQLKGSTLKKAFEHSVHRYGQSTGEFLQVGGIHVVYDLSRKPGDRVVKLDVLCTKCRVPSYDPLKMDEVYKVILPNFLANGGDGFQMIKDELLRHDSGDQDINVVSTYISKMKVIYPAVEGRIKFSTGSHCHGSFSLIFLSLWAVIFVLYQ

IC50: 270 nM
SMILES: CC(OC(=O)C(C)(C)C)OP(=O)(COC[C@H]1O[C@@H](n2ncc3c(N4CC5(CCc6ccccc65)C4)nc(Cl)nc32)[C@H](O)[C@@H]1O)OC(C)OC(=O)C(C)(C)C (stereo partly specified)
